Laboratory results as given in patent US10519147B2 (Merck Sharp & Dohme Corp., priority 2015, dated 2019).

Columns and labels:
human Nav1.7 = target: T1, human Nav1.7 (Homo sapiens, UniProt Q15858); test: IonWorks Quattro automated patch-clamp, inactivated state block of Nav1.7; assay type: cell-based; conditions: channels stably expressed in HEK 293 cells; double-pulse protocol, inactivated state block; read-out: potency for the Nav 1.7 sodium ion channel (IC50, as measured by IonWorks)
T1 construct: expressed in transfected cells; host or cells: HEK 293
T1 sequence (Q15858 whole entry): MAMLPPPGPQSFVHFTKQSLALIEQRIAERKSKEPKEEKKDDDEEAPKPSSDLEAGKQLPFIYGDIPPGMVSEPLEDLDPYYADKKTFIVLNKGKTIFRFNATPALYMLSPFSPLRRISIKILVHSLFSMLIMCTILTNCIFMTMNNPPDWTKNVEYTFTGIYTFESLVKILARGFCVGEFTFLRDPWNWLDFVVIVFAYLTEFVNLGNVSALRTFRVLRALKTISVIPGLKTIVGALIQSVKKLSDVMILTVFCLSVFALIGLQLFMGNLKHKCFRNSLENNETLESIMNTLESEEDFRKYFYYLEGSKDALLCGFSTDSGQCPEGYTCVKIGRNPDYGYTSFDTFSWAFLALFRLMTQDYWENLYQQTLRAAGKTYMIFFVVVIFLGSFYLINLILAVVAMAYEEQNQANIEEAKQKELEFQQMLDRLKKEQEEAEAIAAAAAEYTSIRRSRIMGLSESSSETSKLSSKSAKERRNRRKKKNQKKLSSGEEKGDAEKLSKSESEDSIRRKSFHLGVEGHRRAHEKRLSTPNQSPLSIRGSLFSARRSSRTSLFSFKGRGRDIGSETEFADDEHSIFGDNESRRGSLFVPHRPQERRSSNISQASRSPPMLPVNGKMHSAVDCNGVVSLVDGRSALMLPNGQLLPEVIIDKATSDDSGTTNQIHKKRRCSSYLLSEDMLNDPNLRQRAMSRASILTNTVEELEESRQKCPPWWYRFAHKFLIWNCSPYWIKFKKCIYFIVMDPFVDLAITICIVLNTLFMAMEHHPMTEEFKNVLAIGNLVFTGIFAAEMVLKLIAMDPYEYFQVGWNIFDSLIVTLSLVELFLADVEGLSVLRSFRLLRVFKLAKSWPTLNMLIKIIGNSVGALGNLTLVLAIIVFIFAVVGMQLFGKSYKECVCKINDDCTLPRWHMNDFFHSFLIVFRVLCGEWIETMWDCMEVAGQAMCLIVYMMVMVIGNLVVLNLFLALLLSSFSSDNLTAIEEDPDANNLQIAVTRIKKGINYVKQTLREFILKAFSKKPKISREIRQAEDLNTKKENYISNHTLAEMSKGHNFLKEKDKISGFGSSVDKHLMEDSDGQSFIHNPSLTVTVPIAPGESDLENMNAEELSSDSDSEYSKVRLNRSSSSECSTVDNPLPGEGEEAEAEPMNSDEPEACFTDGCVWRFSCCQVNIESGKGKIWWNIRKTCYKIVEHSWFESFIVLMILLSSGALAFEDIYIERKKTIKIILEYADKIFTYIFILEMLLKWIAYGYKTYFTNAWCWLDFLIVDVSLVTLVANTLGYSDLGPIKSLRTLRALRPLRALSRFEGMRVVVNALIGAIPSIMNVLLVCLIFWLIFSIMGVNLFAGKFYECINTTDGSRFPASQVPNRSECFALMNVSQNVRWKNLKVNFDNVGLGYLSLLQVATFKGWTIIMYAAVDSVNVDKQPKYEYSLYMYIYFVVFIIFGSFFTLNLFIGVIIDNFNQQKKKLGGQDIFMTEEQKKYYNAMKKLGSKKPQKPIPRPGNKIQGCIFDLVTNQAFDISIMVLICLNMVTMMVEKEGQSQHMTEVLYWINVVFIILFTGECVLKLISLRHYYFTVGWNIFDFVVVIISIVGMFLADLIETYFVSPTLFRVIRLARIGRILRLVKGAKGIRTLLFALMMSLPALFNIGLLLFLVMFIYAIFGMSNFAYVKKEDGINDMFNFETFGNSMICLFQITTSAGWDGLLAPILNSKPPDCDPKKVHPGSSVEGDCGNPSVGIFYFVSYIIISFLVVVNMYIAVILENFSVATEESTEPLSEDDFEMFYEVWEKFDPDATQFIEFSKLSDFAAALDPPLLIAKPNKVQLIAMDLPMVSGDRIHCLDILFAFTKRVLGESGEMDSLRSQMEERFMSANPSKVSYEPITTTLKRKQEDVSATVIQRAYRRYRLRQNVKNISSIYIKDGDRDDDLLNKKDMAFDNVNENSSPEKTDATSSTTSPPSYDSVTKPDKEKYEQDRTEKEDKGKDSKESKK
Summary of the method: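 HEK293 stable lines, IonWorks PPC patch clamp (nystatin/amphotericin access); double-pulse protocol giving ~50% inactivation: holding −100 mV (Nav1.7) or −110 mV (Nav1.5), 1000 ms prepulse to −10 or −30 mV, 10 ms repolarization, 10 ms test pulse. Peak current inhibition versus concentration fitted to Hill equation for IC50.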

human Nav1.5 = target: T2, human Nav1.5 (Homo sapiens, UniProt Q14524); test: IonWorks Quattro automated patch-clamp, Nav1.5 (selectivity against Nav1.7); assay type: cell-based; conditions: IonWorks measurement, HEK 293 cells, inactivated state block
T2 construct: expressed in transfected cells; host or cells: HEK 293
T2 sequence (Q14524 whole entry): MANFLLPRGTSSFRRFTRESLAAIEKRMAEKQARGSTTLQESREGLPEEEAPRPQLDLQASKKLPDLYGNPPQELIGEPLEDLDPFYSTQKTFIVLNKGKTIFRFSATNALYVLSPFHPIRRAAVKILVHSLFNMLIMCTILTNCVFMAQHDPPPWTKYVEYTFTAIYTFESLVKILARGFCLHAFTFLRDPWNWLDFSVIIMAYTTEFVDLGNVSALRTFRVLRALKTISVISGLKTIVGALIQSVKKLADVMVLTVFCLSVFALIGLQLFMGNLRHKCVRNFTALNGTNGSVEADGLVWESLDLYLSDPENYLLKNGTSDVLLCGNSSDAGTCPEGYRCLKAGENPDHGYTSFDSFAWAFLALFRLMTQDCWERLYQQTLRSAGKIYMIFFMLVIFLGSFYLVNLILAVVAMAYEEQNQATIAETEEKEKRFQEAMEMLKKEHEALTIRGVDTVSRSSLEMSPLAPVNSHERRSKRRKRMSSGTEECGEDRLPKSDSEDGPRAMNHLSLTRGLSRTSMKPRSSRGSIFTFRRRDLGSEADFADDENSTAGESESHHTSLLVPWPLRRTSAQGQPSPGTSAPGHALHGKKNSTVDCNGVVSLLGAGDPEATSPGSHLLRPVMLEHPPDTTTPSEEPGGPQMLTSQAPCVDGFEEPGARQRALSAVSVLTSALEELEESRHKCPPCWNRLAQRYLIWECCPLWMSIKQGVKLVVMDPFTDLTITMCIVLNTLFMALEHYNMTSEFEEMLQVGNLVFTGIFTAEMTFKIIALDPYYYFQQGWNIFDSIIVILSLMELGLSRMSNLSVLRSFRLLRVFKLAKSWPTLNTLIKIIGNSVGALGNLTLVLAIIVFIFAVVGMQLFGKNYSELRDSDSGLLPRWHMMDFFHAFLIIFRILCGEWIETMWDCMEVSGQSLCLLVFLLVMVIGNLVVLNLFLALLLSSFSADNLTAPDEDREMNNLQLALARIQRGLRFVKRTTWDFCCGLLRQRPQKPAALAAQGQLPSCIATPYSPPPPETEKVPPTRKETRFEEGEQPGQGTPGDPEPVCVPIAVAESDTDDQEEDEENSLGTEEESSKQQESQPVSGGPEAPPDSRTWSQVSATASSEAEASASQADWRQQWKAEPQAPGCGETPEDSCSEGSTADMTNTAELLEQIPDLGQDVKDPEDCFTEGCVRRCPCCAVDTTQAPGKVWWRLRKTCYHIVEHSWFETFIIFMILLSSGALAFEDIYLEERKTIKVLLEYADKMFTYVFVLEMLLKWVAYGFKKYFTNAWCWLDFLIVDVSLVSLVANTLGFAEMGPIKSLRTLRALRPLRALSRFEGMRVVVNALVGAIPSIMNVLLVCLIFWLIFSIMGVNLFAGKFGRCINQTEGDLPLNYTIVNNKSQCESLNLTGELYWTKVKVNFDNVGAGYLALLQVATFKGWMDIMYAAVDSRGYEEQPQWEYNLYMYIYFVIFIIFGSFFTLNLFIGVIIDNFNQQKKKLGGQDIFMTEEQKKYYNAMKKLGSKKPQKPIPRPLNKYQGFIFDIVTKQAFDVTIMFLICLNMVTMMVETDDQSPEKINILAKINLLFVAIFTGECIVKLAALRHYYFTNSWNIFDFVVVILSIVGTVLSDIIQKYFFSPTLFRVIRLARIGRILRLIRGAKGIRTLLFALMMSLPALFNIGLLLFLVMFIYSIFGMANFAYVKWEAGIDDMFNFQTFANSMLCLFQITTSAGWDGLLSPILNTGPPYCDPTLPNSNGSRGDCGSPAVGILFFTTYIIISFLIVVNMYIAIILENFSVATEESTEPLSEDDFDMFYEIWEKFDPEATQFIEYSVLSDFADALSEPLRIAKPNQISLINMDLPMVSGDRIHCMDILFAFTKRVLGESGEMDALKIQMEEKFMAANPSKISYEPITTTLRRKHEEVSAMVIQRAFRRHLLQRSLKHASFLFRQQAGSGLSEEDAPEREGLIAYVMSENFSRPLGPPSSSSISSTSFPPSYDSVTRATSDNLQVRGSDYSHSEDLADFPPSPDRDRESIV
Protocol: Compounds were tested on human Nav1.7 and Nav1.5 channels stably expressed in HEK 293 cells. […] Cells were sealed on a planar substrate using the Population Patch […] (PPC) technology. Electrical access was obtained using both nystatin and amphotericin. A double-pulse protocol was used for the determination of IC50 values for inactivated state block. Nav1.7 and Nav1.5 expressing cells were voltage clamped at −100 mV and −110 mV, respectively. A depolarizing prepulse to −10 mV (Nav1.7) or −30 mV (Nav1.5) for 1000 ms followed by a 10 ms repolarization to −100 mV (Nav1.7) or −110 mV (Nav1.5) was given to generate fractional channel inactivation of 50%, followed by a 10 ms test pulse to −10 mV (Nav1.7) or −30 mV (Nav1.5) to measure peak current in control conditions and after compound addition. The following recording solutions were used (mM). External: 150 NaCl, 2 CaCl2, 5 KCl, 1 Mg Cl2, 10 HEPES, 12 Dextrose; internal: 120 CsF, 30 CsCl, 10 EGTA, 5 HEPES, 5 NaF, 2 MgCl2.
For all electrophysiology experiments, offline analysis was used to determine percent inhibition as a function of drug concentration. IC50 values were determined by fitting to the Hill equation.

| Structure (SMILES) | IC50 (human Nav1.7) | ratio of Nav 1.7 potency:Nav 1.5 potency (human Nav1.5) |
| --- | --- | --- |
| O=S(=O)(Nc1ncns1)c1cc(Cl)c(NCCCCNCC[C@H]2CCCN2)cc1F [Ex 16-20, 5-chloro-2-fluoro-4-{[4-({2-[(2R)-pyrrolidin-2-yl]ethyl}-amino)butyl]amino}-N-1,2,4-thiadiazol-5-ylbenzene-sulfonamide] | 0.08 µM | > 412 |
| O=S(=O)(Nc1ncns1)c1cc(Cl)c(NCCCCNCC[C@@H]2CCCN2)cc1F [Ex 16-21, 5-chloro-2-fluoro-4-{[4-({2-[(2S)-pyrrolidin-2-yl]ethyl}-amino)butyl]amino}-N-1,2,4-thiadiazol-5-ylbenzene-sulfonamide] | 0.031 µM | > 1046 |
| O=S(=O)(Nc1ncc(F)s1)c1cc(Cl)c(NCCCCNCC[C@@H]2CCCN2)cc1F [Ex 16-24, 5-chloro-2-fluoro-N-(5-fluoro-1,3-thiazol-2-yl)-4-{[4-({2-[(2S)-pyrrolidin-2-yl]ethyl}amino)butyl]amino} benzenesulfonamide] | 0.021 µM | > 1571 |
| C[C@H](CCN)NCCCCNc1cc(F)c(S(=O)(=O)Nc2ncc(F)s2)cc1Cl [Ex 16-25, 4-[(4-{[(1R)-3-amino-1-methylpropyl]amino}butyl)amino]-5-chloro-2-fluoro-N-(5-fluoro-1,3-thiazol-2-yl)-benzenesulfonamide] | 0.026 µM | > 1270 |
| CC(C)(CCN)NCCCCNc1cc(F)c(S(=O)(=O)Nc2ncc(F)s2)cc1Cl [Ex 16-27, 4-({4-[(3-amino-1,1-dimethylpropyl)amino]butyl}amino)-5-chloro-2-fluoro-N-(5-fluoro-1,3-thiazol-2-yl)-benzenesulfonamide] | 0.019 µM | > 1737 |
| C[C@@H](N)CCNCCCCNc1cc(F)c(S(=O)(=O)Nc2ncc(F)s2)cc1Cl [Ex 16-30, 4-[(4-{[(3R)-3-amino-butyl]amino}butyl)amino]-5-chloro-2-fluoro-N-(5-fluoro-1,3-thiazol-2-yl)benzene-sulfonamide] | 0.014 µM | > 2357 |
| NCCCNCCCCNc1cc(F)c(S(=O)(=O)Nc2ncns2)cc1Cl [Ex 16-32, 4-({4-[(3-aminopropyl)-amino]butyl}amino)-5-chloro-2-fluoro-N-1,2,4-thiadiazol-5-ylbenzene-sulfonamide] | 0.049 µM | > 673 |
| CNCCNCCCCNc1cc(F)c(S(=O)(=O)Nc2ncns2)cc1Cl [Ex 16-48, 5-chloro-2-fluoro-4-[(4-{[2-(methylamino)ethyl]amino}-butyl)amino]-N-1,2,4-thiadiazol-5-ylbenzene-sulfonamide] | 0.0088 µM | > 3750 |
| NCCNCCCCNc1cc(F)c(S(=O)(=O)Nc2ncc(F)s2)cc1Cl [Ex 16-57, 4-({4-[(2-aminoethyl)-amino]butyl}amino)-5-chloro-2-fluoro-N-(5-fluoro-1,3-thiazol-2-yl) benzene-sulfonamide] | 0.0075 µM | > 4400 |
| NCC1(NCCCCNc2cc(F)c(S(=O)(=O)Nc3ncc(F)s3)cc2Cl)CCC1 [Ex 16-62, 4-[(4-{[1-(aminomethyl)cyclobutyl]amino}butyl)amino]-5-chloro-2-fluoro-N-(5-fluoro-1,3-thiazol-2-yl)benzenesulfonamide] | 0.036 µM | > 917 |
| C[C@@H](CN)NCCCCNc1cc(F)c(S(=O)(=O)Nc2nccs2)cc1Cl [Ex 16-68, 4-[(4-{[(1S)-2-amino-1-methylethyl]amino}butyl)amino]-5-chloro-2-fluoro-N-1,3-thiazol-2-ylbenzenesulfonamide] | 0.02 µM | > 1650 |
| O=S(=O)(Nc1nccs1)c1cc(Cl)c(NCCCCNC[C@@H]2CCN2)cc1F [Ex 16-74, 4-[(4-{[(2S)-azetidin-2-ylmethyl]amino}butyl)amino]-5-chloro-2-fluoro-N-1,3-thiazol-2-ylbenzenesulfonamide] | 0.077 µM | > 429 |
| O=S(=O)(Nc1nccs1)c1cc(Cl)c(NCCCCNC[C@H]2CCN2)cc1F [Ex 16-75, 4-[(4-{[(2R)-azetidin-2-ylmethyl]amino}butyl)amino]-5-chloro-2-fluoro-N-1,3-thiazol-2-ylbenzenesulfonamide] | 0.041 µM | > 805 |
| O=S(=O)(Nc1ncns1)c1cc(Br)c(NCCCCNC[C@H]2CCN2)cc1F [Ex 16-77, 4-[(4-{[(2R)-azetidin-2-ylmethyl]amino}butyl)amino]-5-bromo-2-fluoro-N-1,2,4-thiadiazol-5-ylbenzenesulfonamide] | 0.024 µM | > 1380 |
| C[C@H](CCN)NCCCCNc1cc(F)c(S(=O)(=O)Nc2ncns2)cc1Br [Ex 16-79, 4-[4-[[(1R)-3-amino-1-methyl-propyl]amino]butylamino]-5-bromo-2-fluoro-N-(1,2,4-thiadiazol-5-yl)benzenesulfonamide] | 0.0054 µM | 4260 |
| NC1CCC1NCCCCNc1cc(F)c(S(=O)(=O)Nc2ncns2)cc1Cl (stereo not shown) [Ex 16-81, 4-[4-[(2-aminocyclobutyl)amino]butylamino]-5-chloro-2-fluoro-N-(1,2,4-thiadiazol-5-yl) benzenesulfonamide] | 0.0049 µM | > 6700 |
| CC(C)C[C@@H](CNCCCCNc1cc(F)c(S(=O)(=O)Nc2ncc(F)s2)cc1Cl)[C@@H](C)N [Ex 16-84, 4-((4-(((S)-2-((R)-1-aminoethyl)-4-methylpentyl)-amino)butyl)amino)-5-chloro-2-fluoro-N-(5-fluorothiazol-2-yl)benzenesulfonamide] | 0.0061 µM | > 5400 |

Further lines, with some results ahead:

| IC50 (human Nav1.7) | Structure (SMILES) | ratio of Nav 1.7 potency:Nav 1.5 potency (human Nav1.5) |
| --- | --- | --- |
| 0.0083 µM | O=S(=O)(Nc1ncns1)c1cc(Cl)c(NCCCCNC[C@H]2CCCN2)cc1F [Ex 16-17, 5-chloro-2-fluoro-4-[(4-{[(2R)-pyrrolidin-2-yl-methyl]amino}butyl)amino]-N-1,2,4-thiadiazol-5-yl-benzenesulfonamide] | > 3980 |
| 0.038 µM | O=S(=O)(Nc1ncc(F)s1)c1cc(Cl)c(NCCCCNC2CNC2)cc1F [Ex 16-22, 4-{[4-(azetidin-3-ylamino)-butyl]amino}-5-chloro-2-fluoro-N-(5-fluoro-1,3-thiazol-2-yl)benzene-sulfonamide] | > 868 |
| 0.025 µM | CNCCCNCCCCNc1cc(F)c(S(=O)(=O)Nc2ncc(F)s2)cc1Cl [Ex 16-28, 5-chloro-2-fluoro-N-(5-fluoro-1,3-thiazol-2-yl)-4-[(4-{[3-(methylamino)-propyl]amino}butyl)amino]-benzenesulfonamide] | > 1320 |
| 0.017 µM | C[C@H](CN)NCCCCNc1cc(F)c(S(=O)(=O)Nc2ncc(F)s2)cc1Cl [Ex 16-59, 4-[(4-{[(1R)-2-amino-1-methylethyl]amino}butyl)-amino]-5-chloro-2-fluoro-N-(5-fluoro-1,3-thiazol-2-yl)-benzenesulfonamide] | > 1941 |
| 0.023 µM | N[C@H]1CCC[C@H]1NCCCCNc1cc(F)c(S(=O)(=O)Nc2ncc(F)s2)cc1Cl [Ex 16-64, 4-[(4-{[(1R,2S)-2-aminocyclopentyl]amino}butyl)amino]-5-chloro-2-fluoro-N-(5-fluoro-1,3-thiazol-2-yl) benzenesulfonamide] | > 1430 |
| 0.0085 µM | N[C@H]1CCC[C@@H]1NCCCCNc1cc(F)c(S(=O)(=O)Nc2ncns2)cc1Cl [Ex 16-70, 4-[(4-{[(1S,2S)-2-aminocyclopentyl]amino}butyl)amino]-5-chloro-2-fluoro-N-1,2,4-thiadiazol-5-ylbenzenesulfonamide] | > 2710 |
| 0.007 µM | N[C@H]1CCC[C@@H]1NCCCCNc1cc(F)c(S(=O)(=O)Nc2ncc(F)s2)cc1Cl [Ex 16-71, 4-[(4-{[(1S,2S)-2-aminocyclopentyl]amino}butyl)amino]-5-chloro-2-fluoro-N-(5-fluoro-1,3-thiazol-2-yl)benzenesulfonamide] | > 4710 |
| 0.017 µM | O=S(=O)(Nc1ncns1)c1cc(Br)c(NCCCCNC[C@@H]2CCN2)cc1F [Ex 16-76, 4-[(4-{[(2S)-azetidin-2-ylmethyl]amino}butyl)amino]-5-bromo-2-fluoro-N-1,2,4-thiadiazol-5-ylbenzenesulfonamide] | > 1940 |
| 0.0031 µM | C[C@H](N)CNCCCCNc1cc(F)c(S(=O)(=O)Nc2ncns2)cc1Br [Ex 16-80, 4-[4-[[(2S)-2-aminopropyl]amino]butylamino]-5-bromo-2-fluoro-N-(1,2,4-thiadiazol-5-yl)benzenesulfonamide] | > 10600 |
